Literature values, collected in PMC6492937.

Experiment: not told

Row | Structure (SMILES) | log partition octanol / water [log10]
1 | CCCCCCCCN1CCCCCC1=O | 4.04
2 | CCCCCCCCCC(=O)N1CC(O)CC1C(=O)NCC (stereo not drawn) | 2.86
3 | CCCCN1CCCC1=O | 1.02
4 | CCCCN1CCCCC1=O | 1.39
5 | CCCCN1CCCCCC1=O | 1.80
6 | CCCCCCCCCCCCN1CCCCCC1=O | 6.28
7 | CCCCCCN1CCCCCC1=O | 2.91
8 | CCCCCCCCN1CCCCC1=O | 3.41
9 | CCCCCCCCN1CCCC1=O | 3.05

Now from value to molecule:

Row | log partition octanol / water [log10] | Structure (SMILES)
10 | 3.00 | CCCCCCCCC(=O)N(C)C
11 | 1.89 | CCCCCCC(=O)N(C)C
12 | 2.3 | CCCCCCN1CCCCC1=O
13 | 2.59 | CCCCCCCC(=O)N(C)C
14 | 1.36 | CCCCCC(=O)N(C)C
15 | 2.1 | CCCCCCN1CCCC1=O
